In ChEMBL document CHEMBL1201862, “PubChem BioAssay data set” (2004):
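Compound exposure: 48 hours, 5 concentrations, 96-well plates. GI50: concentration for 50% inhibition of growth.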 The source made the active and inactive calls. Cut-off read from the data, not from the text of the source: active = GI50 up to about 1.1 µM and inactive = higher.

Columns and labels:
Experiment in all cases: NCI anticancer screen, dose series, 48 h
[1] = test system: HCC 2998
[2] = test system: HL-60
[3] = test system: HOP-62
[4] = test system: SF-268
[5] = test system: SF-295
[6] = test system: SK-OV-3
[7] = test system: SN12C
[8] = test system: SNB-19
[9] = test system: SNB-75
[10] = test system: SR
[11] = test system: TK-10
[12] = test system: UACC-257
[13] = test system: UO-31
[14] = test system: ACHN
[15] = test system: COLO 205
[16] = test system: OVCAR-4
[17] = test system: SF-539

Row | Structure (SMILES) | GI50 [1] | GI50 [2] | GI50 [3] | GI50 [4] | GI50 [5] | GI50 [6] | GI50 [7] | GI50 [8] | GI50 [9] | GI50 [10] | GI50 [11] | GI50 [12] | GI50 [13] | GI50 [14] | GI50 [15] | GI50 [16] | GI50 [17]
1 | Cn1c(=O)nc2n(-c3ccc(Cl)cc3)c3ccc(Cl)cc3nc-2c1=O | 7.76 µM (inactive) | 2.68 µM (inactive) | 18 µM (inactive) | 6.78 µM (inactive) | 4.88 µM (inactive) | 88.7 µM (inactive) | 13.1 µM (inactive) | > 10 µM (inactive) | 1.46 µM (inactive) | 7.62 µM (inactive) | 18.2 µM (inactive) | 3.4 µM (inactive) | 18 µM (inactive) |  |  |  | 
2 | COc1cc2ccc3c4cc(OC)c(OC)cc4c[n+](C)c3c2cc1O | > 100 µM (inactive) | > 100 µM (inactive) | > 92.5 µM (inactive) | 0.658 µM (active) |  | > 100 µM (inactive) | 2.1 µM (inactive) | 3.91 µM (inactive) | 15.2 µM (inactive) |  | > 100 µM (inactive) | > 100 µM (inactive) | > 100 µM (inactive) | > 42.2 µM (inactive) | > 90.8 µM (inactive) | > 81.8 µM (inactive) | > 100 µM (inactive)
3 | COc1ccc(/C(=N\NC(=O)C(=O)NN)C(c2ccc(OC)cc2)C2(O)C(=O)Nc3ccccc32)cc1 (configuration not stated) |  |  | 94.8 µM (inactive) | 55.2 µM (inactive) |  | > 100 µM (inactive) | 57.8 µM (inactive) | 53.3 µM (inactive) | > 100 µM (inactive) | 46 µM (inactive) | 69 µM (inactive) |  | 27.6 µM (inactive) | 82.2 µM (inactive) | > 100 µM (inactive) |  | 80.7 µM (inactive)
4 | COc1ccc(C2Cc3cc(OC)c(OC)c(OC)c3C2=O)cc1 (configuration not stated) | > 100 µM (inactive) |  | > 100 µM (inactive) | > 100 µM (inactive) | > 100 µM (inactive) | > 100 µM (inactive) | > 100 µM (inactive) | > 100 µM (inactive) | 47.3 µM (inactive) |  | > 100 µM (inactive) | > 100 µM (inactive) | 41.8 µM (inactive) | > 100 µM (inactive) | > 100 µM (inactive) | > 100 µM (inactive) | > 100 µM (inactive)
5 | N#CCCN(c1ccc(C=O)cc1)S(=O)(=O)c1ccccc1 | > 100 µM (inactive) | > 100 µM (inactive) | > 100 µM (inactive) | > 100 µM (inactive) | > 100 µM (inactive) | > 100 µM (inactive) | > 100 µM (inactive) | > 100 µM (inactive) | 61.9 µM (inactive) | > 100 µM (inactive) |  | > 100 µM (inactive) | > 100 µM (inactive) | > 100 µM (inactive) |  | > 100 µM (inactive) | > 100 µM (inactive)
6 | CCOC(=O)C(=O)Nc1cccc(Cl)c1C | > 100 µM (inactive) | > 100 µM (inactive) | > 100 µM (inactive) | > 100 µM (inactive) | > 100 µM (inactive) | > 100 µM (inactive) | > 100 µM (inactive) | > 100 µM (inactive) |  |  | > 100 µM (inactive) | > 100 µM (inactive) | > 100 µM (inactive) | > 100 µM (inactive) | > 100 µM (inactive) | > 100 µM (inactive) | > 100 µM (inactive)
7 | O=C(N/N=C/c1cccc(O)c1O)N/N=C/c1cccc(O)c1O |  |  |  | 5.93 µM (inactive) | 17.9 µM (inactive) | > 100 µM (inactive) | 21.8 µM (inactive) | 30.2 µM (inactive) | 8.77 µM (inactive) |  | 29.4 µM (inactive) | 19.9 µM (inactive) | 6.52 µM (inactive) | 13.9 µM (inactive) | > 100 µM (inactive) | 28.2 µM (inactive) | 4.92 µM (inactive)
8 | CN(C)CC/C(=N\Nc1ccccc1)c1ccccc1 | 12.2 µM (inactive) |  | 13.4 µM (inactive) | 8.13 µM (inactive) | 2.56 µM (inactive) | 15.3 µM (inactive) |  | 40.9 µM (inactive) |  | 47.8 µM (inactive) | 14.3 µM (inactive) |  | 6.85 µM (inactive) |  | 17.6 µM (inactive) | 3.25 µM (inactive) | 15.8 µM (inactive)
9 | Cc1ccccc1C(=O)Oc1ccc(O)cc1 | > 100 µM (inactive) | > 100 µM (inactive) | > 100 µM (inactive) | > 100 µM (inactive) | > 100 µM (inactive) | > 100 µM (inactive) | > 100 µM (inactive) | > 100 µM (inactive) | > 100 µM (inactive) |  | > 100 µM (inactive) | > 100 µM (inactive) | > 100 µM (inactive) | > 100 µM (inactive) | > 100 µM (inactive) | > 100 µM (inactive) | > 100 µM (inactive)
10 | O=c1cc(-c2ccccc2)c2cc3c(=O)ccoc3cc2o1 | > 100 µM (inactive) | > 100 µM (inactive) | 80.4 µM (inactive) | > 100 µM (inactive) | 42.8 µM (inactive) |  | > 100 µM (inactive) | 64.4 µM (inactive) | 14 µM (inactive) | > 100 µM (inactive) | 44.4 µM (inactive) | > 100 µM (inactive) | > 100 µM (inactive) | 87.9 µM (inactive) | > 100 µM (inactive) | > 100 µM (inactive) | > 100 µM (inactive)
